Laboratory results from ChEMBL document CHEMBL5352410, “Discovery of novel selenium-containing azole derivatives as antifungal agents by exploiting the hydrophobic cleft of CYP51” (Eur J Med Chem, 2022).
Converted amounts (≈) assume the structure as drawn.

Assays:
Pichia kudriavzevii = experiment: Antifungal activity against Pichia kudriavzevii by CLSI based broth microdilution method; format: functional
Candida albicans [1] = experiment: Antibiofilm activity against Candida albicans CPCC400616 assessed as sessile minimum inhibitory concentration measured after 1.5 hrs by XTT assay; format: functional
[2] = target: T1, Lanosterol 14-alpha demethylase (Candida albicans (strain SC5314 / ATCC MYA-2876) (Yeast), UniProt P10613); experiment: Inhibition of CYP51 of Candida albicans ATCC SC5314 assessed as increase in lanosterol level at 8 ug/ml incubated for 16 hrs by GC-MS analysis (reference value: 1.7 %); parameters: scale not given: the % may be the effect or the level left; details: at 8 µg/mL
T1 sequence (P10613 whole entry): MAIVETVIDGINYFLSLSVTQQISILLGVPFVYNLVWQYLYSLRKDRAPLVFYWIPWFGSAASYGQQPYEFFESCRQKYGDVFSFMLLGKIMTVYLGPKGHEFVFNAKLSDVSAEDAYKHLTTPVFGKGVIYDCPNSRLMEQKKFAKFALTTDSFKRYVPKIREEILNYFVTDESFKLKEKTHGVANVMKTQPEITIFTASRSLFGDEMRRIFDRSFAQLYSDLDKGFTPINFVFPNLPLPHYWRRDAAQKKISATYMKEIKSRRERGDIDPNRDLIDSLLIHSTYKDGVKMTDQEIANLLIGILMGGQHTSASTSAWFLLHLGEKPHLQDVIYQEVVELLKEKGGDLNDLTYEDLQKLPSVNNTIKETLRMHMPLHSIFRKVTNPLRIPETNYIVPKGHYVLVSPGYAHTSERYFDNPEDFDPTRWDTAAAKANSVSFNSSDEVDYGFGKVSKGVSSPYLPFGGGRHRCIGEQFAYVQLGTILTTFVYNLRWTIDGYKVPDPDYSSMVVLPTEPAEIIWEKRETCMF

Candida albicans [3] = experiment: Antifungal activity against FCZ-resistant Candida albicans 17# by CLSI based broth microdilution method; format: functional
Nakaseomyces glabratus = experiment: Antifungal activity against Candida glabrata by CLSI based broth microdilution method; format: functional
[4] = target: T1, Lanosterol 14-alpha demethylase; experiment: Inhibition of CYP51 of Candida albicans ATCC SC5314 assessed as increase in obtusifoliol level at 8 ug/ml incubated for 16 hrs by GC-MS analysis (reference value: 0 %); parameters: scale not given: the % may be the effect or the level left; details: at 8 µg/mL
Candida albicans [5] = experiment: Antifungal activity against FCZ-resistant Candida albicans 901 by CLSI based broth microdilution method; format: functional
Aspergillus fumigatus = experiment: Antifungal activity against Aspergillus fumigatus by CLSI based broth microdilution method; format: functional
[6] = target: T1, Lanosterol 14-alpha demethylase; experiment: Inhibition of CYP51 of Candida albicans ATCC SC5314 assessed as decrease in ergosterol level by measuring residual activity at 4 ug/ml incubated for 16 hrs by GC-MS analysis (reference value: 98.3 %); details: at 4 µg/mL
Candida albicans [7] = experiment: Antifungal activity against Candida albicans sc5314 by CLSI based broth microdilution method; format: functional
[8] = Cytotoxicity against human MDA-MB-231 cells by MTT assay; format: toxicity, cell-based
[9] = target: T1, Lanosterol 14-alpha demethylase; experiment: Inhibition of CYP51 of Candida albicans ATCC SC5314 assessed as decrease in ergosterol level by measuring residual activity at 2 ug/ml incubated for 16 hrs by GC-MS analysis (reference value: 98.3 %); details: at 2 µg/mL
[10] = target: T1, Lanosterol 14-alpha demethylase; experiment: Inhibition of CYP51 of Candida albicans ATCC SC5314 assessed as increase in eburicol level at 2 ug/ml incubated for 16 hrs by GC-MS analysis (reference value: 0 %); parameters: scale not given: the % may be the effect or the level left; details: at 2 µg/mL
[11] = target: T1, Lanosterol 14-alpha demethylase; experiment: Inhibition of CYP51 of Candida albicans ATCC SC5314 assessed as decrease in ergosterol level by measuring residual activity at 8 ug/ml incubated for 16 hrs by GC-MS analysis (reference value: 98.3 %); details: at 8 µg/mL
Candida albicans [12] = experiment: Antifungal activity against FCZ-resistant Candida albicans 632 by CLSI based broth microdilution method; format: functional
Candida albicans [13] = experiment: Antifungal activity against FCZ-resistant Candida albicans 904 by CLSI based broth microdilution method; format: functional
Candida albicans [14] = experiment: Fungicidal activity against FCZ-resistant Candida albicans 901; format: functional
Candida albicans [15] = experiment: Antibiofilm activity against Candida albicans SC5314 assessed as sessile minimum inhibitory concentration measured after 24 hrs by XTT assay; format: functional
[16] = Cytotoxicity against human PC-3 cells by MTT assay; format: toxicity, cell-based
Candida albicans [17] = experiment: Fungicidal activity against FCZ-resistant Candida albicans 904; format: functional
[18] = target: T1, Lanosterol 14-alpha demethylase; experiment: Inhibition of CYP51 of Candida albicans ATCC SC5314 assessed as increase in eburicol level at 1 ug/ml incubated for 16 hrs by GC-MS analysis (reference value: 0 %); parameters: scale not given: the % may be the effect or the level left; details: at 1 µg/mL
[19] = target: T1, Lanosterol 14-alpha demethylase; experiment: Inhibition of CYP51 of Candida albicans ATCC SC5314 assessed as increase in lanosterol level at 1 ug/ml incubated for 16 hrs by GC-MS analysis (reference value: 1.7 %); parameters: scale not given: the % may be the effect or the level left; details: at 1 µg/mL
Candida albicans [20] = experiment: Antibiofilm activity against Candida albicans SC5314 assessed as sessile minimum inhibitory concentration measured after 1.5 hrs by XTT assay; format: functional
Candida albicans [21] = experiment: Fungicidal activity against FCZ-resistant Candida albicans 17#; format: functional
[22] = target: T1, Lanosterol 14-alpha demethylase; experiment: Inhibition of CYP51 of Candida albicans ATCC SC5314 assessed as increase in eburicol level at 4 ug/ml incubated for 16 hrs by GC-MS analysis (reference value: 0 %); parameters: scale not given: the % may be the effect or the level left; details: at 4 µg/mL
Candida albicans [23] = experiment: Fungicidal activity against Candida albicans; format: functional
[24] = Cytotoxicity against human HL-60 cells by MTT assay; format: toxicity, cell-based
[25] = target: T1, Lanosterol 14-alpha demethylase; experiment: Inhibition of CYP51 of Candida albicans ATCC SC5314 assessed as increase in obtusifoliol level at 2 ug/ml incubated for 16 hrs by GC-MS analysis (reference value: 0 %); parameters: scale not given: the % may be the effect or the level left; details: at 2 µg/mL
[26] = target: T1, Lanosterol 14-alpha demethylase; experiment: Inhibition of CYP51 of Candida albicans ATCC SC5314 assessed as increase in obtusifoliol level at 1 ug/ml incubated for 16 hrs by GC-MS analysis (reference value: 0 %); parameters: scale not given: the % may be the effect or the level left; details: at 1 µg/mL
Candida albicans [27] = experiment: Fungicidal activity against FCZ-resistant Candida albicans 632; format: functional
Candida albicans [28] = experiment: Antifungal activity against Candida albicans by CLSI based broth microdilution method; format: functional
Cryptococcus neoformans = experiment: Antifungal activity against Cryptococcus neoformans by CLSI based broth microdilution method; format: functional
[29] = target: T1, Lanosterol 14-alpha demethylase; experiment: Inhibition of CYP51 of Candida albicans ATCC SC5314 assessed as increase in obtusifoliol level at 4 ug/ml incubated for 16 hrs by GC-MS analysis (reference value: 0 %); parameters: scale not given: the % may be the effect or the level left; details: at 4 µg/mL
[30] = target: T1, Lanosterol 14-alpha demethylase; experiment: Inhibition of CYP51 of Candida albicans ATCC SC5314 assessed as increase in lanosterol level at 4 ug/ml incubated for 16 hrs by GC-MS analysis (reference value: 1.7 %); parameters: scale not given: the % may be the effect or the level left; details: at 4 µg/mL
Candida albicans [31] = experiment: Antibiofilm activity against Candida albicans CPCC400616 assessed as sessile minimum inhibitory concentration measured after 3 hrs by XTT assay; format: functional
Candida albicans [32] = experiment: Antibiofilm activity against Candida albicans CPCC400616 assessed as sessile minimum inhibitory concentration measured after 24 hrs by XTT assay; format: functional
Candida albicans [33] = experiment: Fungicidal activity against FCZ-resistant Candida albicans CaR; format: functional
Candida parapsilosis = experiment: Antifungal activity against Candida parapsilosis by CLSI based broth microdilution method; format: functional; details: Lodderomyces parapsilosis
Candida albicans [34] = experiment: Antifungal activity against FCZ-resistant Candida albicans CaR by CLSI based broth microdilution method; format: functional
[Candida] zeylanoides = Antifungal activity against Candida zeylanoides by CLSI based broth microdilution method; format: functional; details: Dujonia zeylanoides
Candida albicans [35] = experiment: Antibiofilm activity against Candida albicans SC5314 assessed as sessile minimum inhibitory concentration measured after 6 hrs by XTT assay; format: functional
[36] = target: T1, Lanosterol 14-alpha demethylase; experiment: Inhibition of CYP51 of Candida albicans ATCC SC5314 assessed as increase in eburicol level at 8 ug/ml incubated for 16 hrs by GC-MS analysis (reference value: 0 %); parameters: scale not given: the % may be the effect or the level left; details: at 8 µg/mL
Candida albicans [37] = experiment: Fungicidal activity against Candida albicans sc5314; format: functional
[38] = target: T1, Lanosterol 14-alpha demethylase; experiment: Inhibition of CYP51 of Candida albicans ATCC SC5314 assessed as increase in lanosterol level at 2 ug/ml incubated for 16 hrs by GC-MS analysis (reference value: 1.7 %); parameters: scale not given: the % may be the effect or the level left; details: at 2 µg/mL
[39] = target: T1, Lanosterol 14-alpha demethylase; experiment: Inhibition of CYP51 of Candida albicans ATCC SC5314 assessed as decrease in ergosterol level by measuring residual activity at 1 ug/ml incubated for 16 hrs by GC-MS analysis (reference value: 98.3 %); details: at 1 µg/mL
Candida albicans [40] = experiment: Antibiofilm activity against Candida albicans SC5314 assessed as sessile minimum inhibitory concentration measured after 3 hrs by XTT assay; format: functional
Candida albicans [41] = experiment: Antibiofilm activity against Candida albicans CPCC400616 assessed as sessile minimum inhibitory concentration measured after 6 hrs by XTT assay; format: functional

For `Clc1ccc(C(Cn2ccnc2)[Se]C(Cn2ccnc2)c2ccc(Cl)cc2)cc1` (stereo not given), the MIC (Pichia kudriavzevii) was 16 µg/mL (≈ 32.6 µM), the MIC50 (Candida albicans [1]) was 0.5 µg/mL (≈ 1.02 µM) and the MIC80 (Candida albicans [1]) was 2 µg/mL (≈ 4.08 µM). For the same compound, the Activity [2] was 17%, the MIC (Candida albicans [3]) was 1 µg/mL (≈ 2.04 µM) and the MIC (Nakaseomyces glabratus) was 64 µg/mL (≈ 131 µM). The Activity [4] was 23.8%, the MIC (Candida albicans [5]) was 1 µg/mL (≈ 2.04 µM) and the MIC (Aspergillus fumigatus) was > 64 µg/mL. For the same compound, the Activity [6] was 4.4%, the MIC (Candida albicans [7]) was 1 µg/mL (≈ 2.04 µM) and the IC50 [8] was 3.25 µM. For the same compound, the Activity [9] was 10.4%, the Activity [10] was 56.2% and the Activity [11] was 3.7%. The MIC (Candida albicans [12]) was 2 µg/mL (≈ 4.08 µM), the MIC (Candida albicans [13]) was 1 µg/mL (≈ 2.04 µM) and the MFC (Candida albicans [14]) was 2 µg/mL (≈ 4.08 µM). The MIC50 (Candida albicans [15]) was 0.5 µg/mL (≈ 1.02 µM), the MIC80 (Candida albicans [15]) was 2 µg/mL (≈ 4.08 µM) and the IC50 [16] was 0.98 µM. For the same compound, the MFC (Candida albicans [17]) was 1 µg/mL (≈ 2.04 µM), the Activity [18] was 29.3% and the Activity [19] was 5.1%. The MIC50 (Candida albicans [20]) was 0.5 µg/mL (≈ 1.02 µM), the MIC80 (Candida albicans [20]) was 2 µg/mL (≈ 4.08 µM) and the MFC (Candida albicans [21]) was > 64 µg/mL. For the same compound, the Activity [22] was 73.8%, the MFC (Candida albicans [23]) was 32 µg/mL (≈ 65.3 µM) and the IC50 [24] was 5.18 µM. It also gave an Activity [25] of 18%, an Activity [26] of 1% and an MFC (Candida albicans [27]) of 4 µg/mL (≈ 8.16 µM). The MIC (Candida albicans [28]) was 2 µg/mL (≈ 4.08 µM), the MIC (Cryptococcus neoformans) was > 64 µg/mL and the Activity [29] was 9.5%. For the same compound, the Activity [30] was 12.4%, the MIC50 (Candida albicans [31]) was 0.5 µg/mL (≈ 1.02 µM) and the MIC80 (Candida albicans [31]) was 2 µg/mL (≈ 4.08 µM). The MIC50 (Candida albicans [32]) was 2 µg/mL (≈ 4.08 µM), the MIC80 (Candida albicans [32]) was 4 µg/mL (≈ 8.16 µM) and the MFC (Candida albicans [33]) was > 64 µg/mL. The MIC (Candida parapsilosis) was 2 µg/mL (≈ 4.08 µM), the MIC (Candida albicans [34]) was 4 µg/mL (≈ 8.16 µM) and the MIC ([Candida] zeylanoides) was 8 µg/mL (≈ 16.3 µM). For the same compound, the MIC50 (Candida albicans [35]) was 0.5 µg/mL (≈ 1.02 µM), the MIC80 (Candida albicans [35]) was 4 µg/mL (≈ 8.16 µM) and the Activity [36] was 55.5%. The MFC (Candida albicans [37]) was 2 µg/mL (≈ 4.08 µM), the Activity [38] was 15.4% and the Activity [39] was 64.7%. It also gave an MIC50 (Candida albicans [40]) of 0.5 µg/mL (≈ 1.02 µM), an MIC80 (Candida albicans [40]) of 2 µg/mL (≈ 4.08 µM) and an MIC50 (Candida albicans [41]) of 1 µg/mL (≈ 2.04 µM). For the same compound, the MIC80 (Candida albicans [41]) was 2 µg/mL (≈ 4.08 µM).
